From US20200147058A1, “KRAS INHIBITOR FOR USE IN TREATING CANCER” (Friedrich-Alexander-Universitat Erlangen-Numberg, priority 2016, published 2020)

Key:
Format in all cases: cell-based, human
[1] = test system: Mel Juso cells; experiment: ERK-activation in BRAFi primary resistant cells; conditions: PLX
[2] = test system: SkMel28-wt; experiment: cell proliferation (slope of cell index); conditions: 10 μM PLX vs DMSO
Protocol: (§1) FIGS. 6A through 6H depict that KRASi Prevents Emergence of Resistance and KRAS Expression is Regulated Dynamically in Acquired Resistance to BRAFi. […] Asterisks indicate significant differences (p<0.05) as compared to according control (0 μM PLX). FIGS. 6E and 6F are exemplary Western blot images (FIG. 6E) depicting immunostaining of AKT, pAKT, ERK, pERK, and KRAS. Densitometric values (DM) are also shown, representing relative quantifications. Resistant cell lines 451Lu-R and SkMel28-R were treated with 0, 5, or 10 μM PLX for 8 hours, and according summarized quantification of KRAS protein expression (n=3, FIG. 6F).

[3] = test system: 451Lu-wt; experiment: cell proliferation (slope of cell index); conditions: 10 μM PLX vs DMSO
[4] = test system: resistant cell clones (SkMel28-R, 451Lu-R); experiment: real-time cell proliferation of BRAFi-resistant melanoma cells; conditions: both resistant cell clones; 10 μM PLX vs DMSO
Protocol: as §1
FIGS. 7A through 7I present KRAS Inhibition Re-sensitizes BRAF Inhibitor Resistant Cells for Inhibition of Proliferation and Induction of Apoptosis. […] show real-time cell proliferation (exemplary proliferation curve depicted in FIG. 6A, summarized slopes of proliferation curves depicted in FIG. 6B) of PLX-resistant cells treated with si-KRAS (KR) or control si-RNA (CTR), respectively, in combination with 5 or 10 μM PLX. FIGS. 7C and 7D show real-time cell proliferation (exemplary proliferation curve depicted in […], summarized slopes of proliferation curves depicted in FIG. 7D) of PLX-resistant cells treated with Deltarasin (DR) or DMSO, respectively, in combination with 5 or 10 μM PLX, according to FIGS. 7A and 7B. […]

[5] = test system: KRAS mRNA in SkMel28-R and 451Lu-R cells; experiment: qRT-PCR of KRAS mRNA expression after PLX treatment; conditions: resistant and some non-resistant melanoma cell clones; 24-hour and 48-hour PLX treatment
Protocol: as §1

[6] = test system: Mel Im cells; experiment: long-term treatment, emergence of surviving tumor cells and drug resistance; conditions: 21 days, PLX increasing doses up to 20 μM, or 10 μM PLX + 5 μM DR
Source text: (§2) FIGS. 4A through 4H depict that small Molecule KRAS Inhibition Reduces Proliferation and Induces Apoptosis in Melanoma. FIGS. 4A and 4B show proliferation (slope of cell index) of Mel Juso (FIG. 4A) and Mel Im (FIG. 4B) cells treated with DMSO and different concentrations of the KRAS small molecule inhibitor Deltarasin (DR). The cell index as dimensionless parameter for cell proliferative ability was used to determine the half maximal inhibitory concentration (IC50, small graphs) of DR. […] FIG. 4D illustrates exemplary images of different melanoma cell lines (Mel Im, Mel Juso and Mel Ei) treated with 5 μM DR or 5 μM DMSO, respectively, for 24 hours. FIGS. 4E and 4F show images of fibroblast cell lines derived from two different donors (F1, F2) and melanocytes (NHEM) treated DR (20 μM, 48 hours) or DMSO (FIG. 4E), and lactate dehydrogenase (LDH) quantification (FIG. 4F) in cell supernatants (optic density, OD) of NHEM after treatment with low dose DMSO, DR (5 μM), and DR (10 μM), respectively.
FIGS. 6A through 6H depict that KRASi Prevents Emergence of Resistance and KRAS Expression is Regulated Dynamically in Acquired Resistance to BRAFi. […] Asterisks indicate significant differences (p<0.05) as compared to according control (0 μM PLX). […] Densitometric values (DM) are also shown, representing relative quantifications. […]

[7] = test system: Htz19 melanoma cells; experiment: FACS analysis of apoptosis; conditions: PLX 24 hours, alone or combined with RNAi-mediated KRAS knockdown
[8] = test system: resistant cell lines 451Lu-R and SkMel28-R; experiment: Western blot of AKT, pAKT, ERK, pERK and KRAS
Protocol: as §1
After 48 hours of transfection with either control si-RNA (CTR) or si-KRAS (KR), cells were treated with different concentrations of PLX (0-10 μM). Data are represented as mean±SD in FIGS. 6A-6G and as mean±SEM in FIG. 6H. Ns: non-significant. *: p<0.05.

[9] = test system: Mel Juso cells; experiment: three-dimensional, anchorage-independent colony-forming assay; conditions: Mel Juso (BRAFi primary resistant); DR 5 μM, PLX 10 μM, alone or combined
Source text: FIGS. 5A through 5D show time-dependent measurement of colony diameters (exemplary data in top panels) in three-dimensional, anchorage-independent “colony-forming” assays (FIGS. 5A and 5B: Mel Im, FIGS. 5C and 5D: Mel Juso). Exemplary Images (middle) and corresponding quantification of colony diameters (bottom panels, summarized data of n=3 experiments at day 19 after seeding) are also depicted. […] Effects on i) colony formation (FIGS. 5A and 5C, treatment at day 1) and ii) proliferation of pre-formed colonies (FIGS. 5B and 5D, treatment at day 7 and 13) were analyzed. […] Cells were treated for 5 hours with DMSO, 5 μM Deltarasin (DR), 10 μM PLX, or a combination of 10 μM PLX and 5 μM DR. […] (FIG. 5H) Mel Im and Mel Juso were transfected with control si-RNA (si-CTR) or with si-KRAS (si-KR). Two subgroups (blue and red) were additionally treated with 10 μM PLX (Vemurafenib) for 24 hours, with subsequent flow cytometric quantification of tumor cell apoptosis according to FIG. 5G.

[10] = test system: Mel Im cells; experiment: FACS analysis of apoptosis (Annexin / propidium iodide)
Source text: as §2
(§3) FIGS. 5A through 5D show time-dependent measurement of colony diameters (exemplary data in top panels) in three-dimensional, anchorage-independent “colony-forming” assays (FIGS. 5A and 5B: Mel Im, FIGS. 5C and 5D: Mel Juso). Exemplary Images (middle) and corresponding quantification of colony diameters (bottom panels, summarized data of n=3 experiments at day 19 after seeding) are also depicted. Treatments were performed in four different groups (10 μM DMSO, 5 μM Deltarasin=DR, M PLX-4032=PLX (vemurafenib), or combination of 10 μM PLX+[…]). Effects on i) colony formation (FIGS. 5A and 5C, treatment at day 1) and ii) proliferation of pre-formed colonies (FIGS. 5B and 5D, treatment at day 7 and 13) were analyzed. […] FIG. 5F show images of PLX-primary resistant Mel Juso cells treated with DMSO, DR (5 μM), high dose PLX (20 μM) and a combination of 5 μM DR+10 μM PLX for 24 hours. […] Cells were treated for 5 hours with DMSO, 5 μM Deltarasin (DR), 10 μM PLX, or a combination of 10 μM PLX and 5 μM DR. According to exemplary images for Annexin and propidium iodide (PI) staining are depicted for Mel Im. (FIG. 5H) Mel Im and Mel Juso were transfected with control si-RNA (si-CTR) or with si-KRAS (si-KR). Two subgroups (blue and red) were additionally treated with 10 μM PLX (Vemurafenib) for 24 hours, with subsequent flow cytometric quantification of tumor cell apoptosis according to FIG. 5G. Exemplary images for Annexin and propidium iodide (PI) staining are depicted for Mel Im.

[11] = test system: Mel Juso cells; experiment: as above
Source text: as §2, §3

[12] = 10 μM PLX 24 hours, alone (si-CTR) or combined with RNAi-mediated KRAS knockdown
[13] = 5 hours, 5 μM DR, 10 μM PLX or combination

CCCS(=O)(=O)Nc1ccc(F)c(C(=O)c2c[nH]c3ncc(-c4ccc(Cl)cc4)cc23)c1F [PLX]
ERK-activation [1]: enhanced | cell proliferation [2]: inhibited proliferation | cell proliferation [3]: inhibited proliferation | cell proliferation [4]: enhanced | KRAS mRNA expression (qRT-PCR) [5]: dose-dependent slight dynamic alteration | emergence of surviving tumor cells (acquired resistance) [6]: survival of a moderate proportion of tumor cells | apoptosis (FACS) [7]: slightly enhanced apoptosis | ERK activation (pERK) ([8]; PLX 0, 5 or 10 μM): increased ERK activation | activation of AKT (pAKT/AKT) ([8]; PLX doses): dose-dependently increased | KRAS protein expression (Western blot) ([8]; eight hours, 0, 5 or 10 μM PLX): dose-dependently enhanced | three-dimensional colony formation and colony proliferation [9]: enhanced | apoptosis (FACS) [10, 12]: slightly enhanced apoptosis | apoptosis (FACS), short treatment [10, 13]: insufficient to induce apoptosis | apoptosis (FACS) [11, 12]: did not cause apoptosis | apoptosis (FACS), short treatment [11, 13]: insufficient to induce apoptosis
